Reference: patent US8877809B2, “Compositions and methods for treating macular degeneration” (The Trustees of Columbia University in the City of New York, priority 2007, dated 2014)
“Also recorded” adds a separate entry of the source. Read-outs that look alike come from different tables or passages of the source.

Columns and labels:
ABCR knockout mice = details: cited from earlier work
users = details: cited from earlier work
[1] = mouse, in vivo; cited from earlier work
[2] = In vitro A2E formation from retinal, ethanolamine and acetic acid, followed by HPLC; details: mass spectrometry of the reaction mixture after 50 hours
CD IGS rats = assay: A2E-lipofuscin in wild-type CD IGS rats after 8 weeks of IP retinal dosing, HPLC; assay type: in vivo; details: for Total A2E-lipofuscin versus retinal group (FIG. 7A, in words): C20-D3-retinal alone, Fenretinide or TDH given with retinal; for Less A2E-lipofuscin compared to animals administered only all-trans-retinal: all-trans-retinal 3 mg IP for 8 weeks plus drug at roughly 1.5 mg/day/animal in drinking water
Method: Animals treated with retinal had the greatest amount of A2E-lipofuscin (normalized to 100%).
45-50 day old, female, CD IGS rats (Charles River, Wilmington, Mass.) were divided up into four groups of three. Three of these groups were administered all-trans-retinal and the one group was given C20-D3-all-trans-retinal (IP injection in a 10% solution of Tween-20 in saline) at 3 mg, bi- or tri-weekly for 8 weeks (20, 3 mg injections total). Thus, at the end of the 8-week period the animals received roughly 20 times their original stores of vitamin A, as retinal or C20-D3-all-trans-retinal. Massive dosing with C20-D3-all-trans-retinal quickly replaces normal vitamin A stores with the C20-D3-analog. Of the three groups administered all-trans-retinal, one group was given Fenretinide (50) and another TDH (23), at doses of roughly 1.5 mg/day/animal (both supplied in the drinking water emulsified with 1 g/L of Nu-rice (RIBUS, Inc, St. Louis, Mo.)).
At the end of the 8 weeks, RPE, A2E-lipofuscin was evaluated in each of the four groups by HPLC as described in Example 3 and in FIG. 7. A2E-lipofuscin pigments were greatest in the animals receiving all-trans-retinal (the control group).

CD-1 (ICR) mice = assay: A2E-lipofuscin in eyes of CD-1 (ICR) mice after IP retinal dosing, HPLC; assay type: in vivo; details: 1.5 mg IP bi-weekly for 6 weeks; HPLC at 445 nm
Method: C20-D3-all-trans-retinal was administered to mice in order to measure its ability to form A2E in the eye compared to all-trans-retinal. […], 8-week old, CD-1 (ICR) mice (from Charles River, Wilmington, Mass.) were divided up into two groups of five and administered 1.5 mg of ether all-trans-retinal or C20-D3-all-trans-retinal by intraperitoneal injection (IP) injection in a 10% solution of Tween-20 in saline bi-weekly for 6 weeks. At the end of this six-week period, each mouse was given a total of 60,000 I.U.(18 mg) or about 28-times the original amount of vitamin A in the mouse's body. Massive dosing with C20-D3-all-trans-retinal quickly replaces normal vitamin A stores with the C20-D3-analog. And, the injected retinal rapidly accumulates in the eye (rod outer segments), where at high enough concentrations it will react to form lipofuscin pigments. This is similar to the accumulation of all-trans-retinal in the ABCR^−/− mice and in patents with Stargardt's disease.
At the end of the six week period, the eyes were dissected, the retinas and eyecups pooled into groups of 4 or 5, and homogenated with 50 μL ethanol. The homogenate was centrifuged at 13,000 rpm for 5 minutes and 40 μL of the supernatant was drawn off and analyzed for A2E-lipofuscin by HPLC. Retinol and retinol esters were analyzed at 325 nm and A2E-lipofuscin was measured at 445 nm.

ABCR−/− mice [3] = assay: Electron microscopy of RPE lipofuscin deposits in ABCR-/- mice raised exclusively on the diet; assay type: in vivo; details: 5.5-6 month old mice raised only on the diet
From the text: Due to the uncertainty in distinguishing lipofuscin from melanin bodies. Comparisons were made between the numbers of all dark, electron dense bodies found in the RPE between mice on the retinol acetate diet vs. those on the C20-D3-all-trans-retinol acetate diet. In addition to the electron dense lipofuscin and melanin bodies, RPE phagosomes, mitochondria, and lipid droplets are also present but were ultrastructurally distinct.
In order to measure the amount lipofuscin granules in the eyes of the above mice on a normal diet vs. the diet containing C20D3-all-trans-retinol acetate, eyecups from both groups of mice (2 from each group) were evaluated by electron microscopy.

ABCR−/− mice [4] = assay: Extractable lipofuscin pigments in eyecups of ABCR-/- mice raised exclusively on the diet, HPLC; assay type: in vivo; details: 5.5-6 month old mice raised only on the diet, offspring of mothers on the same diet
Method: On the other hand, lipofuscin pigments were undetectable in mice raised on the C20-D3-all-trans-retinol acetate diet.
As in Example 4, two groups of four ABCR^−/− mice where raised either on diets containing C20-D3-all-trans-retinol acetate or all-trans-retinol acetate. However, in this example the mice were offspring of mothers on the same diet, and thus where raised only on their respective vitamin A analogs. At 5.5-6 months of age the mice were sacrificed and the eyecups were analyzed for lipofuscin pigments as described in Example 4. The results are shown FIG. 5.

ABCR−/− mice [5] = assay: A2E-lipofuscin in eyecups of ABCR-/- mice after 3-month diet, HPLC; assay type: in vivo; details: diet with 20,000 I.U./kg for 3 months, from 2 months of age; HPLC at 445 nm
Method: C20-D3-all-trans-retinol acetate was prepared according to the literature procedure (47) and was administered to ABCR^−/− mice (48, 49) in order to measure its ability to lead to lipofuscin compared to that of all-trans-retinol acetate. Eight 2-month old, ABCR^−/− mice raised on a standard rodent diet were then fed a diet containing 20,000 I.U./kg of either C20-D3-all-trans-retinol acetate or all-trans-retinol acetate for 3 months.
At the end of the […] period, the eyes were dissected, eyecups pooled into groups of six and homogenated with 80 μL ethanol. The homogenate was centrifuged at 13000 rpm for 5 min and 30 μL of the supernatant was drawn off and analyzed for A2E-lipofuscin by HPLC. A2E-lipofuscin was measured at 445 nm. […] This percentage of A2E reduction is on the same order of magnitude observed in similar studies in ABCR^−/− mice with the visual cycle antagonist TDH, TDT, Ret-NH2, 13-cis-retinoic, acid and fenretinide. However, in this example A2E reduction is achieved with doses of C20-D3-all-trans-retinol acetate that are 11- to 40-times less.

[6] = In vitro A2E formation from C20-fluorinated retinal, monitored by HPLC; details: C20 hydrogens replaced by fluorine; disappearance of retinal and absence of fluorinated A2E by HPLC
From the text: In the present invention, when the C20 hydrogens of all-trans-retinoids are replaced by fluorine atoms (F3), the formation of A2E is eliminated, as measured by monitoring the disappearance of C20-F3-all-trans-retinal and the absence of the corresponding fluorinated A2E by HPLC. A2E and the ATR-dimer are believed to be formed in vivo by a multi-step reaction sequence involving two molecules of all-trans-retinal, as shown in FIG. 2. In the first step, all-trans-retinal condenses with a biological amine to form the imine. This imine is then thought to undergo a hydrogen shift involving a hydrogen atom at carbon C20 (step 2). Subsequent reaction (step 3) with another molecule of retinal either by 1,2- or 1,4-addition followed by cyclizations (step 4) yields A2E or ATR-dimer precursors, respectively. A2E is subsequently formed after spontaneous oxidation in air, and ATR dimer, after elimination (step 4).
It has been shown that replacing certain C—H bonds with C—F bonds in retinal (i.e., C20-F1-3-retinal) hampers the reactivity of all-trans-retinal, and, thus slows or eliminates the formation of A2E in vitro. By replacing hydrogen atoms at C20 with fluorine, the hydrogen shift step is blocked. Accordingly, C20-F1-3-retinal is expected to appreciably slow A2E and ATR-dimer biosynthesis.

patients [7] = details: 200 mg/day for five years, 1,432 patients; cited from earlier work
patients [8] = details: oral 600 or 900 mg/m2 bid in 6-week cycles, cited from earlier work
[9] = 2-month-old ABCR knockout mice, 50 mg/kg bi-weekly for two months

CC1=C(/C=C/C(C)=C/C=C/C(C)=C\C(=O)O)C(C)(C)CCC1 [13 cis-retinoic acid]
Lipofuscin formation in the RPE cell layer judged by electron microscopy (ABCR knockout mice; 2-month-old ABCR knockout mice, 20 mg/kg/day for two months): decrease in lipofuscin formation | Decrease in A2E formation compared to control ABCR knockout mice (ABCR knockout mice; 3-month-old ABCR knockout mice, 40 mg/kg/day for one month): 40-50% | Share of users with back pain, muscle and joint pain, allergic reaction, dizziness, hair loss, dry eyes, decreased night vision, low blood counts and others (users; in vivo): 10-29% | Share of users with headache, fever, dry skin, dry mucous membranes, bone pain, nausea and vomiting, rash, mouth sores, itching, sweating, eyesight changes (users; larger doses used to treat cancer): more than 30% | Effect on dark adaptation when administered [1]: delayed dark adaptation

[2H]C([2H])([2H])C(/C=C/C=C(C)/C=C/C1=C(C)CCCC1(C)C)=C\C=O [C20-D3-all-trans-retinal]
Hydrogen deuterium exchange during the reaction [2]: not observed | Less A2E-lipofuscin than animals receiving all-trans-retinal (CD IGS rats; 3 mg IP bi- or tri-weekly for 8 weeks, given instead of all-trans-retinal): 35% | Total A2E-lipofuscin versus retinal group (FIG. 7A, in words) (CD IGS rats): less A2E-lipofuscin | Less A2E-lipofuscin compared to mice administered all-trans-retinal (CD-1 (ICR) mice): 68%

[2H]C([2H])([2H])C(/C=C/C=C(C)/C=C/C1=C(C)CCCC1(C)C)=C\COC(C)=O [C20-D3-all-trans-retinol acetate]
Electron dense (lipofuscin) bodies in the RPE versus retinol acetate diet (ABCR−/− mice [3]): less electron dense lipofuscin deposits; also recorded: considerably less electron dense bodies | Lipofuscin pigments extracted from eyecups (HPLC) (ABCR−/− mice [4]): undetectable | Less A2E-lipofuscin compared to mice on a diet of all-trans-retinol acetate (ABCR−/− mice [5]): 44-58%

CC(C=CC1=C(C)CCCC1(C)C)=CC=CC(=CC=O)C(F)(F)F [C20-F3-all-trans-retinal]
Formation of A2E [6]: eliminated

CC1=C(/C=C/C(C)=C/C=C/C(C)=C/C(=O)Nc2ccc(O)cc2)C(C)(C)CCC1 [Fenretinide, N-(4-hydroxyphenyl)retinamide]
Dermatologic disorders, incidence (patients [7]): 16% | Diminished dark adaptation, cumulative incidence (patients [7]): 16% | Disorders of the ocular surface, incidence (patients [7]): 8% | Gastrointestinal symptoms, incidence (patients [7]): 8% | Patients with mild to moderate adverse effects possibly linked to the drug (patients [8]; 45 patients): 95% | Grade 2 toxicities reported as possibly linked to treatment (patients [8]): seizures and confusion | Decrease in A2E formation compared to control ABCA4 knockout mice (ABCR knockout mice; 2-month-old ABCA4 knockout mice, 20 mg/kg/day for one month): 40-50% | Total A2E-lipofuscin versus retinal group (FIG. 7A, in words) (CD IGS rats): less A2E-lipofuscin | Less A2E-lipofuscin compared to animals administered only all-trans-retinal (CD IGS rats): 49% | Effect on dark adaptation when administered [1]: delayed dark adaptation

CC1=C(/C=C/C(C)=C/C=C/C(C)=C/CN)C(C)(C)CCC1 [Ret-NH2, All-trans-retinylamine]
Decrease in A2E formation compared to control ABCA4 knockout mice (ABCR knockout mice; 1-month-old ABCA4 knockout mice, 40 mg/kg bi-weekly for two months): about 50% | Effect on dark adaptation when administered [1]: severe delayed dark adaptation

CCCCCCCCCCCCCCCCNC/C=C(\C)CC/C=C(\C)CCC=C(C)C [TDH, (2E,6E)-N-hexadecyl-3,7,11-trimethyldodeca-2,6,10-trienamine]
Decrease in A2E formation compared to control ABCR knockout mice (ABCR knockout mice; [9]): about 50% | Total A2E-lipofuscin versus retinal group (FIG. 7A, in words) (CD IGS rats): less A2E-lipofuscin | Less A2E-lipofuscin compared to animals administered only all-trans-retinal (CD IGS rats): 31% | Effect on dark adaptation when administered [1]: delayed dark adaptation

CCCCCCCCCCC(=O)/C=C(\C)CC/C=C(\C)CCC=C(C)C [TDT, (12E,16E)-13,17,21-trimethyldocosa-12,16,20-trien-11-one]
Decrease in A2E formation compared to control ABCR knockout mice (ABCR knockout mice; [9]): 50-85% | Effect on dark adaptation when administered [1]: delayed dark adaptation

CC1=C(/C=C/C(C)=C/C=C/C(C)=C/C=O)C(C)(C)CCC1 [all-trans-retinal]
Total A2E, HPLC peak area at 445 nm, normalized (CD IGS rats; FIG. 7A, three female rats per group): 100%

all-trans-retinol acetate
Lipofuscin pigments extracted from eyecups (HPLC) (ABCR−/− mice [4]): detectable | Lipofuscin pigments extracted from eyecups (HPLC) (ABCR−/− mice [4]; listed as retinol acetate): considerable accumulation of lipofuscin pigments
